Results taken from ChEMBL document CHEMBL3259607, “Hot spot-based design of small-molecule inhibitors for protein-protein interactions” (Bioorg Med Chem Lett, 2014).
pIC50, pKd, pKi: −log10 of the molar value.

What was measured:
[1] = biological target: TCF4/beta-catenin (Homo sapiens, UniProt P35222+Q9NQB0); assay: Inhibition of beta-catenin/T cell factor (unknown origin); assay type: protein-complex assay
[2] = biological target: Von Hippel-Lindau disease tumor suppressor/Elongin B/Elongin C (Homo sapiens, UniProt P40337); assay: Displacement of FAM-DEALAHyp-YIPD from VHL/elongins-B/elonginC (unknown origin) by fluorescence polarization assay; assay type: protein-complex assay
[3] = biological target: T1, Interferon alpha/beta receptor 1 (Homo sapiens, UniProt P17181); assay: Binding affinity to IFNAR (unknown origin) assessed as inhibition of interaction with IFN-alpha
T1 sequence (P17181 whole entry): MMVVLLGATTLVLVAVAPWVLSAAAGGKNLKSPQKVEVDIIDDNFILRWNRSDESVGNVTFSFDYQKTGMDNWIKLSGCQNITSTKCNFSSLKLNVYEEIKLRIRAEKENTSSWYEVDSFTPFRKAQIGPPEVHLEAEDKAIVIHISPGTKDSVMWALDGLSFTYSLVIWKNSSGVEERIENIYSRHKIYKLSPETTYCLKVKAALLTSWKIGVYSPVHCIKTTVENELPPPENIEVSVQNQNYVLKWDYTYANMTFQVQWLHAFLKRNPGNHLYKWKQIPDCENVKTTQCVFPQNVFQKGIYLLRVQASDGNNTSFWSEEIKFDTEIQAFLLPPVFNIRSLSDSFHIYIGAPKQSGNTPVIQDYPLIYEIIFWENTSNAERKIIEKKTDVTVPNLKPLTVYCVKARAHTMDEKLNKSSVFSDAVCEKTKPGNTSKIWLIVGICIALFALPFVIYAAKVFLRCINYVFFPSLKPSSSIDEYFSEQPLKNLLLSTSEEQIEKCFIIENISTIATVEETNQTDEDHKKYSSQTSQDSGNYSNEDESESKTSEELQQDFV

Sequence of TCF4/beta-catenin (P35222 whole entry): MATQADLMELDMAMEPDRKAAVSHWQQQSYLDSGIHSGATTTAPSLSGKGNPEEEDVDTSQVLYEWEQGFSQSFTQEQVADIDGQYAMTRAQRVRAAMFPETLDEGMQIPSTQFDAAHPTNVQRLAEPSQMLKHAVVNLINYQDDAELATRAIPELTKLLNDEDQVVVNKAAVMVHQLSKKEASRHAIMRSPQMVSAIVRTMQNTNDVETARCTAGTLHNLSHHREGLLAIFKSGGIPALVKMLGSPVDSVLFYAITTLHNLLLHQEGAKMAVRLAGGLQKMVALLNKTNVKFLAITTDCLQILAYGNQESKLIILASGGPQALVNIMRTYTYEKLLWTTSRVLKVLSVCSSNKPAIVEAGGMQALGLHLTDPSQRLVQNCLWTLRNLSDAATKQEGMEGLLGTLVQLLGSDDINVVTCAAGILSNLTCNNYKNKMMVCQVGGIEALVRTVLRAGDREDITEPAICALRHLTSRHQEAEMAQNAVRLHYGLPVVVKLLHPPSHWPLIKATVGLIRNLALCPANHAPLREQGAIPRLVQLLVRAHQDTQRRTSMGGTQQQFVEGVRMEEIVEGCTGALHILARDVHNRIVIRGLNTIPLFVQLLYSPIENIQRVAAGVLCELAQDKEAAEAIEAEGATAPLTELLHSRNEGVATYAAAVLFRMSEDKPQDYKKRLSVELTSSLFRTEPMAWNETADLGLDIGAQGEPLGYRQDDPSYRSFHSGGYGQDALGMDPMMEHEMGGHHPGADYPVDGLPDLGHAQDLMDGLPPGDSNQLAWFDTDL
Sequence of TCF4/beta-catenin (Q9NQB0 whole entry): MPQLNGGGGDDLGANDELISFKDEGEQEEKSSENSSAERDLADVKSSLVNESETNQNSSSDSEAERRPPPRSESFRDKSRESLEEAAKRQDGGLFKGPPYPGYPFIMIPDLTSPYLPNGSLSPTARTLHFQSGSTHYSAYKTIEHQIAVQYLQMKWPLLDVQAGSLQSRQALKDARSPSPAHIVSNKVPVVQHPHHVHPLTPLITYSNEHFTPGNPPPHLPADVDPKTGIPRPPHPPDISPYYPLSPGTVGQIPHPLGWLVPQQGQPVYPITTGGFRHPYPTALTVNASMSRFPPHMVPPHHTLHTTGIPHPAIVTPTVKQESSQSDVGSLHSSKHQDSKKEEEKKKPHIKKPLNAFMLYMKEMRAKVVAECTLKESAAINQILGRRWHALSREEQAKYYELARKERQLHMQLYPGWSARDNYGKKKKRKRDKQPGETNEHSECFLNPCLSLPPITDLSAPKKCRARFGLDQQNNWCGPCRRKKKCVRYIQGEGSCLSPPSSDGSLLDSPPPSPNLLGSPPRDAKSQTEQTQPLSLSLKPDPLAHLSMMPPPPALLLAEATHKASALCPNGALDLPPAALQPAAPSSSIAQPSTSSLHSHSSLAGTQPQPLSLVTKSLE
Sequence of Von Hippel-Lindau disease tumor suppressor/Elongin B/Elongin C (P40337 whole entry, looked up): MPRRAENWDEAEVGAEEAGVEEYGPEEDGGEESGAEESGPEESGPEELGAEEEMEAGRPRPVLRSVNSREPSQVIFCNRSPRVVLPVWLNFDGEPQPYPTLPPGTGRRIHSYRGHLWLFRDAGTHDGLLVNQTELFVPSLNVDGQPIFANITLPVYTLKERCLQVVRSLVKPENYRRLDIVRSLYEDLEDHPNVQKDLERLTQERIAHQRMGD

With `Oc1noc2cc(CCc3nn[nH]n3)ccc12` the pKi [1] was 5.87.
`Cc1ncsc1-c1ccc(CNC(=O)[C@@H]2C[C@@H](O)CN2C(=O)c2cccc(N)c2C)cc1` showed a pIC50 [2] of 6.05.
Work on `CNCc1ccccc1Sc1cccc2ccccc12` yielded a pKd [3] of 5.40.
